US20120238549A1, “Nuclear Hormone Receptor Modulators” (ABBOTT LABORATORIES, priority 2011, published 2012)

biological target: T1, Glucocorticoid Receptor (GR) (Homo sapiens, UniProt P04150); test: GR Florescence Polarization Assay (PolarScreen Glucocorticoid Receptor Competitor Assay, Red); conditions: Fluorescense polarization binding ranges; competition with fluorescent glucocorticoid, incubated overnight at 4° C.
T1 construct: purchased Invitrogen P2893
T1 sequence (P04150 1-777): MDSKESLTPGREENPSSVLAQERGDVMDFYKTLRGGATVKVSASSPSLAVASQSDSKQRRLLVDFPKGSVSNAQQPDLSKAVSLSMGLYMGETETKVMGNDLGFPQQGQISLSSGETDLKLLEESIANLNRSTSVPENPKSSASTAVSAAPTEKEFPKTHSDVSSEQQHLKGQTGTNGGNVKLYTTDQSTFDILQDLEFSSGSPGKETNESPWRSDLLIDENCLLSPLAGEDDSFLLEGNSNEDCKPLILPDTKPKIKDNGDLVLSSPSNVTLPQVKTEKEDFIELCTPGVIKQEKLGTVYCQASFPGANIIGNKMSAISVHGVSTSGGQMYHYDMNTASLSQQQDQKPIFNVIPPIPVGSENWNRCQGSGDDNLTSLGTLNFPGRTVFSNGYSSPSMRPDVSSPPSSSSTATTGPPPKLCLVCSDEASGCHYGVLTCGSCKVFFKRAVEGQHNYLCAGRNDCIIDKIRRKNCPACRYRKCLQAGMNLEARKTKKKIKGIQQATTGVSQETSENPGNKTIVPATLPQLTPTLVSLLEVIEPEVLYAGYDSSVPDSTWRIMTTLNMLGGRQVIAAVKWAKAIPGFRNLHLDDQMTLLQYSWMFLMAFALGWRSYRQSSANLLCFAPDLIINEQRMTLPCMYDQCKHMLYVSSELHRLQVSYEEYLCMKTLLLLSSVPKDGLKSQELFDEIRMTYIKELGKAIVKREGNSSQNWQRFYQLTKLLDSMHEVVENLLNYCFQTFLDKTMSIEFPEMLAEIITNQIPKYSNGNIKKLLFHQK
Procedure: GR Florescence Polarization Assay Florescence polarization assays were carried out using the PolarScreen™ Glucocorticoid Receptor Competitor Assay, Red from Invitrogen (P2893). The assay buffer was prepared according to the manufacturer's protocol and used to dilute the fluorescent glucocorticoid and GR. Compounds were prepared and serial diluted 1:4 in DMSO. Compound, fluorescent glucocorticoid and GR were added in a final volume of 20 μL and incubated overnight at 4° C. Fluorescent polarization was measured on the Perkinelmer Envision®.

Structure (SMILES) | IC50 [nM]
CCCOC[C@@]1(O)CC[C@@]2(Cc3ccccc3)c3ccc(C(=O)Nc4cccnc4C)cc3CCC[C@H]2C1 (racemic) [Example 101] | < 100
Cc1ncccc1NC(=O)c1ccc2c(c1)CCC[C@H]1C[C@@](O)(COC3CCOCC3)CC[C@@]21Cc1ccccc1 (racemic) [Example 102] | < 100
Cc1ncccc1NC(=O)c1ccc2c(c1)CCC[C@H]1C[C@@](O)(COc3ccccc3)CC[C@@]21Cc1ccccc1 (racemic) [Example 103] | < 100
CC[C@@]1(O)CC[C@@]2(Cc3ccccc3)c3ccc(C(=O)Nc4cccnc4C)cc3CCC[C@H]2C1 (single isomer, unassigned) [Example 14] | < 100
CC[C@]1(O)CC[C@]2(Cc3ccccc3)c3ccc(C(=O)Nc4cccnc4C)cc3CCC[C@@H]2C1 (single isomer, unassigned) [Example 15] | 100 to 1000
CC[C@@]1(O)CC[C@@]2(Cc3ccccc3)c3ccc(C(=O)Nc4cccnc4C)cc3C(=O)CC[C@H]2C1 (single isomer, unassigned) [Example 24] | < 100
CC[C@]1(O)CC[C@]2(Cc3ccccc3)c3ccc(C(=O)Nc4cccnc4C)cc3C(=O)CC[C@@H]2C1 (single isomer, unassigned) [Example 25] | 1000 to 10000
CCC[C@]1(O)CC[C@]2(CC)c3ccc(C(=O)Nc4cccnc4C)cc3CCC[C@@H]2C1 (single isomer, unassigned) [Example 44] | 100 to 1000
CCC[C@@]1(O)CC[C@@]2(CC)c3ccc(C(=O)Nc4cccnc4C)cc3CCC[C@H]2C1 (single isomer, unassigned) [Example 45] | < 100
CC[C@]12CC[C@](C)(O)C[C@H]1CCCc1cc(C(=O)Nc3cccnc3C)ccc12 (single isomer, unassigned) [Example 59] | 1000 to 10000
CC[C@@]12CC[C@@](C)(O)C[C@@H]1CCCc1cc(C(=O)Nc3cccnc3C)ccc12 (single isomer, unassigned) [Example 60] | < 100
CCC[C@@]1(O)CC[C@@]2(CC)c3ccc(C(=O)Nc4cccnc4C)cc3C(=O)CC[C@H]2C1 (single isomer, unassigned) [Example 61] | 100 to 1000
CCC[C@]1(O)CC[C@]2(CC)c3ccc(C(=O)Nc4cccnc4C)cc3C(=O)CC[C@@H]2C1 (single isomer, unassigned) [Example 62] | < 100

Next, values leading:

IC50 [nM] | Structure (SMILES)
100 to 1000 | Cc1ncccc1NC(=O)c1ccc2c(c1)CCC[C@H]1C[C@@](O)(CO)CC[C@@]21Cc1ccccc1 (racemic) [Example 104]
< 100 | Cc1ncccc1NC(=O)c1ccc2c(c1)CCC[C@H]1C[C@@](O)(COCCS(C)(=O)=O)CC[C@@]21Cc1ccccc1 (racemic) [Example 105]
< 100 | CCC[C@@]1(O)CC[C@@]2(CC)c3ccc(C(=O)Nc4cccnc4C)cc3OCC[C@H]2C1 (racemic) [Example 119, (7aS,9R,11aR)-11a-Ethyl-9-hydroxy-N-(2-methylpyridin-3-yl)-9-propyl-6,7,7a,8,9,10,11,11a-octahydrodibenzo[b,d]oxepine-3-carboxamide; compound with (7aR,9S,11aS)-11a-ethyl-9-hydroxy-N-(2-methylpyridin-3-yl)-9-propyl-6,7,7a,8,9,10,11,11a-octahydrodibenzo[b,d]oxepine-3-carboxamide]
< 100 | CCC[C@@]1(O)CC[C@@]2(CC)c3ccc(C(=O)Nc4cccnc4C)cc3C=CC[C@H]2C1 (racemic) [Example 128, (7aS,9R,11aR)-11a-Ethyl-9-hydroxy-9-propyl-7a,8,9,10,11,11a-hexahydro-7H-dibenzo[a,c]cycloheptene-3-carboxylic acid (2-methyl-pyridin-3-yl)-amide compound with (7aR,9S,11aS)-11a-ethyl-9-hydroxy-9-propyl-7a,8,9,10,11,11a-hexahydro-7H-dibenzo[a,c]cycloheptene-3-carboxylic acid (2-methyl-pyridin-3-yl)-amide]
< 100 | CC[C@@]12CC[C@](O)(c3ccccc3)C[C@@H]1CCOc1cc(C(=O)Nc3cccnc3C)ccc12 (racemic) [Example 134, (7aS,9R,11aR)-11a-Ethyl-9-hydroxy-N-(2-methylpyridin-3-yl)-9-phenyl-6,7,7a,8,9,10,11,11a-octahydrodibenzo[b,d]oxepine-3-carboxamide; compound with (7aR,9S,11aS)-11a-ethyl-9-hydroxy-N-(2-methylpyridin-3-yl)-9-phenyl-6,7,7a,8,9,10,11,11a-octahydrodibenzo[b,d]oxepine-3-carboxamide]
100 to 1000 | CC[C@@]12C[C@@H](O)[C@](O)(c3ccccc3)C[C@@H]1CCOc1cc(C(=O)Nc3cccnc3C)ccc12 (racemic) [Example 135, (7aS,9R,10R,11aR)-11a-Ethyl-9,10-dihydroxy-N-(2-methylpyridin-3-yl)-9-phenyl-6,7,7a,8,9,10,11,11a-octahydrodibenzo[b,d]oxepine-3-carboxamide; compound with (7aR,9S,10S,11aS)-11a-ethyl-9,10-dihydroxy-N-(2-methylpyridin-3-yl)-9-phenyl-6,7,7a,8,9,10,11,11a-octahydrodibenzo[b,d]oxepine-3-carboxamide]
< 100 | CCC[C@@]1(O)CC[C@@]2(CC)c3ccc(C(=O)Nc4cccnc4C)cc3COC[C@H]2C1 (racemic) [Example 136, (7aS,9R,11aR)-11a-Ethyl-9-propyl-9-hydroxy-N-(2-methylpyridin-3-yl)-5,7,7a,8,9,10,11,11a-octahydrodibenzo[c,e]oxepine-3-carboxamide; compound with (7aR,9S,11aS)-11a-ethyl-9-propyl-9-hydroxy-N-(2-methylpyridin-3-yl)-5,7,7a,8,9,10,11,11a-octahydrodibenzo[c,e]oxepine-3-carboxamide]
1000 to 10000 | CC[C@@]1(O)CC[C@@]2(Cc3ccccc3)c3cc(C(=O)Nc4cccnc4C)cn3CCC[C@H]2C1 (racemic) [Example 144, (7aS,9R,11aS)-11a-Benzyl-9-ethyl-9-hydroxy-N-(2-methylpyridin-3-yl)-6,7,7a,8,9,10,11,11a-octahydro-5H-benzo[c]pyrrolo[1,2-a]azepine-2-carboxamide; compound with (7aR,9S,11aR)-11a-benzyl-9-ethyl-9-hydroxy-N-(2-methylpyridin-3-yl)-6,7,7a,8,9,10,11,11a-octahydro-5H-benzo[c]pyrrolo[1,2-a]azepine-2-carboxamide]
< 100 | CCC[C@@]1(O)CC[C@@]2(CC)c3ccc(C(=O)Nc4ccccc4N)cc3CCC[C@H]2C1 (racemic) [Example 145, (7aS,9R,11aR)-11a-Ethyl-9-hydroxy-9-propyl-6,7,7a,8,9,10,11,11a-octahydro-5H-dibenzo[a,c]cycloheptene-3-carboxylic acid (2-amino-phenyl)-amide; compound with (7aR,9S,11aS)-11a-ethyl-9-hydroxy-9-propyl-6,7,7a,8,9,10,11,11a-octahydro-5H-dibenzo[a,c]cycloheptene-3-carboxylic acid (2-amino-phenyl)-amide]
100 to 1000 | CCC[C@@]1(O)CC[C@@]2(CC)c3ccc(-c4nc5ccccc5[nH]4)cc3CCC[C@H]2C1 (racemic) [Example 146, (3R,4aS,11bR)-9-(1H-Benzoimidazol-2-yl)-11b-ethyl-3-propyl-2,3,4,4a,5,6,7,11b-octahydro-1H-dibenzo[a,c]cyclohepten-3-ol; compound with (3S,4aR,11bS)-9-(1H-benzoimidazol-2-yl)-11b-ethyl-3-propyl-2,3,4,4a,5,6,7,11b-octahydro-1H-dibenzo[a,c]cyclohepten-3-ol]
< 100 | CCC[C@@]1(O)CC[C@@]2(CC)c3ccc(C(=O)Nc4cccnc4N)cc3CCC[C@H]2C1 (racemic) [Example 149, (7aS,9R,11aR)-11a-Ethyl-9-hydroxy-9-propyl-6,7,7a,8,9,10,11,11a-octahydro-5H-dibenzo[a,c]cycloheptene-3-carboxylic acid (2-amino-pyridin-3-yl)-amide; compound with (7aR,9S,11aS)-11a-ethyl-9-hydroxy-9-propyl-6,7,7a,8,9,10,11,11a-octahydro-5H-dibenzo[a,c]cycloheptene-3-carboxylic acid(2-amino-pyridin-3-yl)-amide]
< 100 | CCC[C@@]1(O)CC[C@@]2(CC3CC3)c3ccc(C(=O)Nc4cccnc4C)cc3CCC[C@H]2C1 (racemic) [Example 150, (7aR,9R,11aS)-11a-Cyclopropylmethyl-9-hydroxy-9-propyl-6,7,7a,8,9,10,11,11a-octahydro-5H-dibenzo[a,c]cycloheptene-3-carboxylic acid (2-methyl-pyridin-3-yl)-amide; compound with (7aS,9S,11aR)-11a-cyclopropylmethyl-9-hydroxy-9-propyl-6,7,7a,8,9,10,11,11a-octahydro-5H-dibenzo[a,c]cycloheptene-3-carboxylic acid (2-methyl-pyridin-3-yl)-amide]
